Assay results: patent US20180022922A1, “METHOD FOR PREPARING A COLORANT FOR USE IN A HOT MELT INK” (Océ Holding B.V., priority 2016, published 2018)

Test: Migration test (paper chromatography)
Format: physicochemical
Settings: Wattmann 1-CHR paper, eluent cyclohexane/toluene 50 wt %/50 wt %, judged qualitatively (FIG. 5)
Protocol: A chromatography test is performed to provide an (comparative) indication of migration of a colorant on a print substrate. For this, solutions of the colorants to be tested, in dichloromethane are prepared. The prepared solutions contain substantially equal concentrations of colorant. For the purpose of the present invention, the eluent solution consists of a cyclohexane/toluene mixture (50 wt %/50 wt %). A sheet of Wattmann 1-CHR paper is used as a substrate. At about 1 cm from the bottom edge of the paper sheet dots of equal size of the colorant solutions are made (by using a pipette). Each dot is positioned at substantially the same distance from the bottom edge of the paper sheet. Then the sheet is left to dry. A beaker is filled with eluent solution such that the level of eluent solution is less than 1 cm. The dried test sample (paper sheet provided with colorant dots) is placed in the beaker such that the lower edge of the paper sheet touches the bottom of the beaker. Due to capillary flow the eluent solution will flow upward in the paper sheet. This set up is left to stand until the wetted height of paper sheet is at least 1.5 times the height to which the most soluble colorant rises. The results are judged qualitatively. If the colorant dot remains at the starting position, migration is not likely to occur. […]

Cn1c(=O)cc2c3c(c(NC4CCCCC4)ccc31)C(=O)c1ccccc1-2 [SR149]
migration of colorant on paper substrate: significant migration
